Assay results published in patent publication US4364926A, “Novel alkaline protease M3 method for the preparation thereof and dental caries-prophylactic composition containing the same” (Dainippon Pharmaceutical Co., Ltd., priority 1980, dated 1982).
Structures can show the parent of a compound that is named as a salt. Where two headings read alike, the source gives them in different places.

Test system: alkaline protease M3 from Streptomyces globisporus B-1829 strain (ATCC 21553)
Test: Protease activity (casein hydrolysis) in the presence of additives
Format: biochemical
[1] = additive 10^-3 M, protease activity, no additive = 100

Compound: O=C(O)CI [Iodoacetic acid]
- Effect by additive on activity (in words): substantially not inhibited
- Inhibition of protease activity (in words): substantially not inhibited
- Relative activity (%): 118%

Compound: O=C1O[C@H]([C@@H](O)CO)C(O)=C1O [L-Ascorbic acid]
- Relative activity (%) [1]: 110%

Compound: O=C1CCC(=O)N1Br [NBS, N--Bromosuccinimide]
- Relative activity (%) [1]: 85%
- Relative activity (%) (additive 10^-4 M, protease activity, no additive = 100): 0%
- Inhibition of protease activity (in words) (additive in an amount of 10^-4 M): completely inhibited

Compound: NNC(N)=O [Semicarbazide hydrochloride]
- Relative activity (%): 116%

Compound: O=C(O)CCC(=O)O [Succinic acid]
- Relative activity (%) [1]: 113%

Compound: NC(N)=S [Thiourea]
- Relative activity (%): 119%
